How the values were obtained:
[1] = system: SH-SY5Y neuroblastoma cells; test: Superoxide assay, MitoSOX Red, xanthine oxidase generated superoxide; type: cell-based, human; settings: xanthine oxidase 25 mU/mL
Method: The ability of the HK series of multifunctional and monofunctional antioxidant compounds to specifically reduce superoxide radicals in live cells was assessed in both SH-SY5Y neuroblastoma cells and ARPE-19 retinal pigmented epithelial cells. The production of superoxide by mitochondria was visualized with fluorescence microscopy using the MitoSOX™ Red reagent (Invitrogen Life Sciences, Grand Island, N.Y.), which permeates live cells, where it selectively targets mitochondria. It is rapidly oxidized by superoxide, but not by other reactive oxygen species (ROS) and reactive nitrogen species (RNS). The oxidized product is highly fluorescent upon binding to nucleic acid. […] The cell media was then removed from each well, and the wells were washed with PBS. Compounds (HK series and JHX series and antioxidant standards (Hydroquinone (HQ), Trolox (T), Vitamin E (VE), Vitamin C (VC)) dissolved in DMSO (10 μL) were then added to each well, along with fresh media (140 μL) without serum albumin (FBS). Superoxide dismutase (SOD, 500 μg/mL, 10 μL) was used as an additional control, and cells in all groups (controls, drug treated, and SOD treated groups) were exposed to the same amounts of DMSO. After addition, the cells were incubated at 37° C. under a 5% CO2 atmosphere for 1 hr. Xanthine oxidase (XO), was then added (25 mU/mL) to generate approximately 100 μM superoxide, and culture continued for an additional hour. The media was then again removed, and the cells were washed with PBS. Finally, the cells were stained with 100 μL of the MitoSOX Red reagent (5 μM), and 2 hr after further incubation, the fluorescence of each well was measured using fluorescent microplate reader at Ex/Em=510/580 nm.

[2] = system: SH-SY5Y neuroblastoma cells; test: Cell viability study, MTS Cell Titer 96 Aqueous One Solution assay; settings: 1 mM compound in 0.16% DMSO
Method: (§5) The in vitro cell viability studies were conducted as previously described using SH-SY5Y neuroblastoma cells (ATCC) and cultured according to ATCC procedures in 1:1 Eagles minimum essential medium with Earle's balanced salt solution and Ham's F12 (EMEM-F12) media containing (10% fetal bovine serum (FBS)) at 37° C. under a 5% CO2 atmosphere. Cell viability studies were conducted over a 24 hour period in 96-well plates using the Cell Titer 96® Aqueous One Solution Cell Proliferation Assay (MTS, Promega, Madison, Wis.) with 1 mM of each compound or clioquinol (PBT1) dissolved in 0.16% DMSO. […] This is a colorimetric method for determining the number of viable cells in proliferation or cytotoxicity assays where the One Solution contains MTS (3-(4,5-dimethylthiazol-2-yl)-5-(3-carboxymethoxyphenyl)-2-(4-sulfophenyl)-2H-tetrazolium), in the presence of phenazine methosulfate (PMS). The MTS compound is bioreduced by cells into a colored formazan product and, as measured by the amount of 490 nm absorbance, is directly proportional to the number of living cells in culture. […] The protective effect of these compounds against H2O2 and hydroxyl radical generated by the Fenton reaction were examined.

[3] = system: SH-SY5Y neuroblastoma cells; test: LIVE/DEAD Viability/Cytotoxicity Assay, hydroxyl radical (Fenton reagent) induced cell death; type: cell-based, human; settings: 2 hours exposure to Fenton reagent
Method: (§1) The ability of the HK series of multifunctional antioxidant compounds to specifically protect against hydroxyl radical-induced cell death was assessed in both SH-SY5Y neuroblastoma cells and ARPE-19 retinal pigmented epithelial cells using the LIVE/DEAD® Viability/Cytotoxicity Assay (Invitrogen Life Sciences, Grand Island, N.Y.). The cells were seeded into 96-well plates and grown in standard media (1:1 EMEM-F12 media containing 10% FBS for the human SH-SY5Y neuroblastoma cells, or DMEM containing 4% FBS for the human ARPE-19 retinal pigmented epithelial cells), at 37° C. under a 5% CO2 atmosphere until 80% confluence was achieved (ca. 24 hr). The media was then removed, and the cells were washed with PBS. Compounds (HK series and JHX series or antioxidant standards (Hydroquinone (HQ), Trolox (T), Vitamin E (VE), Vitamin C (VC)) dissolved in DMSO (10 μL) were again added to the cells, along with the appropriate media without FPS. Following a 1 hr incubation at 37° C. under a 5% CO2 atmosphere, Fenton reagents (Fe^2+ and hydrogen peroxide dissolved in appropriate media without FBS to give a final concentration of 100 μM) were added to each well, and incubation continued. After 2 hr of incubation with Fenton reagent, the media was removed and the cells were washed with PBS. The cells were stained with 100 μL of the LIVE/DEAD reagent containing calcein AM (AM, 8 μM for NB) and ethidium homodimer-1 (EthD-1, 16 μM for NB) for 1 hr at 37° C. The fluorescence of each well was measured using a fluorescent microplate reader at Ex/Em=494/517 nm (Fsam for LIVE Cells) and Ex/Em=528/617 nm (Fsam for DEAD Cells). The fluorescence of control samples was also measured as follows: Fmax for LIVE Cells (The fluorescence at Ex/Em=494/517 nm in live cells samples labeled with AM only); Fmin for LIVE Cells (The fluorescence at Ex/Em=494/517 nm in live cells samples labeled with EthD-1 only); Fmax for DEAD Cells (The fluorescence at Ex/Em=528/617 nm in dead cells samples labeled with EthD-1 only); Fmin for DEAD Cells (The fluorescence at Ex/Em=528/617 nm in dead cells samples labeled with AM only); Blank 494/517 (The fluorescence at Ex/Em=494/517 nm without dye and cells); Blank 528/617 (The fluorescence at Ex/Em=528/617 nm without dye and cells). For the dead cells control, the cells were incubated with 70% of ethanol for 30 min at 37° C. The percentage of live cells was calculated from the fluorescence readings using the equation
(§2) [formula] The percentage of dead cells was calculated from the fluorescence readings using the equation: […]

[4] = system: ARPE-19 retinal pigmented epithelial cells; test: as above; type: cell-based, human; settings: ARPE-19, 2 hours exposure to Fenton reagent
Method: as §1, §2

[5] = system: light-induced retinal damage; settings: rats; cited from earlier work
[6] = system: radiation cataract; settings: Long-Evans rats, 15 Gy whole head gamma irradiation; cited from earlier work
[7] = system: diabetic cataract; settings: diabetic rats; cited from earlier work
[8] = system: SH-SY5Y neuroblastoma cells; test: Protective effect against H2O2 and Fenton-generated hydroxyl radical, MTS cell viability; type: cell-based, human; settings: versus DMSO control
Method: as §5

[9] = system: SH-SY5Y neuroblastoma cells; test: Mitochondrial viability/toxicity, rhodamine 123 staining with or without MnCl2; type: cell-based, human; settings: 1 mM drug, 1 mM MnCl2
Method: The laser dye rhodamine 123 is shown to be a specific probe for the localization of mitochondria in living cells. Because of its selectivity for mitochondria, this stain can be used to probe alterations in mitochondria induced by drugs. Therefore, studies were conducted to determine whether MFAOs can adversely alter mitochondrial function through their ability chelate transition metals.
Human SH-SY5Y neuroblastoma cells were seeded into 8-well microscope plates (BD Falcon, 800μ-slides), and the cells were incubated in EMEM-F12 media containing 10% FBS at 37° C. under a 5% CO2 atmosphere. Once the cells were approximately 80% confluent in each well, the media was removed and the cells were washed with PBS. The cells were then pre-incubated for 1 hour at 37° C. under a 5% CO2 atmosphere with 200 μL of HBSS medium without FBS containing drug JHX-1, -4, -5, -8, HK-2, -4, -9, -11, or Clioquinol dissolved in DMSO, so that final drug concentrations of 1 mM in 4% DMSO were achieved. Then MnCl2 was added to the appropriate cells groups to give a final concentration of 1 mM, and the groups were cultured for an additional 2 hours. After the […] exposure to manganese, the media was removed and the cells were washed with PBS. The cells were then stained with 100 μL of the fluorescent dye rhodamine 123 (Rh123) (20 μM) and Hoechst 33342 (8 μM) per well at 37° C., 5% CO2 for 30 min. […]

[10] = system: ARPE-19 RPE cells; test: as above; type: cell-based, human; settings: ARPE-19, 1 mM drug, 1 mM MnCl2
[11] = system: SH-SY5Y neuroblastoma cells; test: Zinquin analysis of cellular labile zinc after exposure to Aβ1-42/Zn complex; type: cell-based, human; settings: 10 μM drug
Method: (§3) The ability of MFAOs to release zinc from amyloid beta/zinc complex was investigated using […] from American Peptide Company, Inc. (Vista, Calif.). The Aβ1-42/Zn complex was prepared as follow. ZnSO4 solution (200 μM) and Aβ1-42 (200 μM) were mixed together and incubated at 37° C. After 48 hr incubation, the mixture was centrifuged at 14000×g, 3 min to pellet the aggregated Aβ1-42. The aggregated Aβ1-42 was then resuspended in water or 200 μM of drugs. The complex was diluted with Hank's Balanced Saline Solution (HBSS) to give a final 10 μM concentration for each component. This complex was then used in the following studies employing human SH-SY5Y neuroblastoma and ARPE-19 pigmented epithelial cells. The studies were repeated 2-4 times.
(§4) Human SH-SY5Y neuroblastoma cells were seeded into 8-well microscope plates (BD Falcon, 800μ-slides), and the cells were incubated in EMEM-F12 media containing 10% FBS at 37° C. under a 5% CO2 atmosphere. Once the cells were approximately 80% confluent in each well, the media was removed, and the cells were washed with phosphate buffered saline (PBS). […] The zinquin fluorescence was then measured in the fixed cells by confocal fluorescence microscopy using a DAPI (4′,6-diamidino-2-phenylindole) DAPI filter set to assess the cellular compartmentalization of zinc. […]

[12] = system: ARPE-19 retinal pigmented epithelial cells; test: as above; type: cell-based, human; settings: ARPE-19, 10 μM drug
Method: as §3, §4

Row | SMILES | reduction of superoxide radical [1] | decrease in 24 hr cell viability compared to DMSO treated cells [2] | further results
1 | O=C1CCC(=O)N1c1ncccn1 [HK-1, 1-(2-pyrimidyl)pyrrolidine-2,5-dione] | did not | – | –
2 | O=C1CCC(=O)N1c1ncc(O)cn1 [HK-2, 1-(5-hydroxy-2-pyrimidyl)pyrrolidine-2,5-dione] | – | approximately 20% | –
3 | COc1cc(OC)nc(N2C(=O)CCC2=O)n1 [HK-3, 1-(4,6-dimethoxy-2-pyrimidyl)pyrrolidine-2,5-dione] | did not | – | –
4 | O=C1CCCC(=O)N1c1ncccn1 [HK-5, 1-(2-pyrimidyl)piperidine-2,6-dione] | did not | – | –
5 | O=C1CCCC(=O)N1c1ncc(O)cn1 [HK-6, 1-(5-hydroxy-2-pyrimidyl)piperidine-2,6-dione] | – | approximately 20% | –
6 | COc1cc(OC)nc(N2C(=O)CCCC2=O)n1 [HK-7, 1-(4,6-dimethoxy-2-pyrimidyl)piperidine-2,6-dione] | did not | – | –
7 | COc1nc(N2C(=O)CCCC2=O)nc(OC)c1O [HK-8, 1-(4,6-dimethoxy-5-hydroxy-2-pyrimidyl)piperidine-2,6-dione] | – | 30% | –
8 | c1cnc(N2CCCC2)nc1 [HK-9, 2-(pyrrolidine-1-yl)pyrimidine] | no effect | – | protection against hydroxyl radicals (live/dead cells) [3]: no effect
9 | Oc1cnc(N2CCCC2)nc1 [HK-10, 5-hydroxy-2-(pyrrolidine-1-yl)pyrimidine] | demonstrated protection | – | protection against hydroxyl radical (live/dead cells) [4]: dose-dependent protection
10 | COc1cc(OC)nc(N2CCCC2)n1 [HK-11, 4,6-dimethoxy-2-(pyrrolidine-1-yl)pyrimidine] | no effect | – | protection against hydroxyl radicals (live/dead cells) [3]: no effect
11 | COc1nc(N2CCCC2)nc(OC)c1O [HK-12, 5-hydroxy-4,6-dimethoxy-2-(pyrrolidine-1-yl)pyrimidine] | demonstrated protection | – | protection against hydroxyl radical (live/dead cells) [4]: dose-dependent protection
12 | Oc1cnc(N2CCCCC2)nc1 [HK-14, 5-hydroxy-2-(piperidine-1-yl)pyrimidine] | demonstrated protection | – | protection against hydroxyl radical (live/dead cells) [4]: dose-dependent protection
13 | COc1nc(N2CCCCC2)nc(OC)c1O [HK-16, 5-hydroxy-4,6-dimethoxy-2-(piperidine-1-yl)pyrimidine] | demonstrated protection | – | protection against hydroxyl radical (live/dead cells) [4]: dose-dependent protection
14 | CN(C)S(=O)(=O)N1CC(=O)N(c2ncc(O)cn2)C(=O)C1 [JHX-4] | – | – | protection against light-induced retinal damage [5]: protects rats against light-induced retinal damage; cataract formation after irradiation [6]: significantly delayed cataract formation; progression of cataracts [7]: delayed the progression of cataracts
15 | Cc1c(C)c2c(c(C)c1O)CCC(C)(C(=O)O)O2 (centres unmarked) [Trolox, reference compound] | – | approximately 20% | –
16 | Oc1c(I)cc(Cl)c2cccnc12 [clioquinol] | – | 50% | cell viability in the Fenton reaction [8]: lower than DMSO control; loss of rhodamine 123 staining after MnCl2 [9]: not observed; loss of rhodamine 123 staining after MnCl2 [10]: not observed; labile zinc (zinquin staining) in presence of aggregated Aβ1-42/Zn complex [11]: maintain labile zinc levels; labile zinc (zinquin staining) in presence of aggregated Aβ1-42/Zn complex [12]: maintain labile zinc levels
